# In US20080311613A1, “ARTIFICIAL SKIN SURFACE FILM LIQUIDS” (The Government of the U.S.A. as represented by the …, priority 2007, published 2008):
# Where two headings read alike, the source gives them in different places.
# Tests used:
# physchem = conditions: artificial sweat, 36 °C
# Experimental: (§1) This large initial volume was useful in promoting dissolution of the constituents of the artificial sweat. […] Next, the desired masses of electrolytes and other ionic constituents (see Table 2) were added to the flask. Upon addition of the electrolytes and ionic constituents, the concentrations of chloride, calcium, and iron were measured to assess whether they matched predictions from weighing: 1.67×10^−2 M chloride, 6.93×10^−3 M calcium, and 0.54 ppm iron. Next, organic acids and carbohydrates were added to the solution (see Table 2) and the stability of chloride, calcium, and iron concentrations verified. Amino acids were added (see Table 2) then calcium and iron concentrations verified; chloride ion concentration was measured to determine if it matched the predicted value (1.7×10^−2 M) from weighing electrolytes, ionic constituents, and hydrogen chloride salts of some amino acids. Nitrogenous substances were added (see Table 2) and chloride, calcium, and iron concentrations re-verified.
# (§2) Vitamin constituents were added to the solution last (see Table 2).
# (§3) The pH of the artificial sweat solution was raised from 3.8 (as prepared) to a final pH of 5.3 by adding 5 M sodium hydroxide dropwise while monitoring using a calibrated pH electrode (InLab 413, Mettler-Toledo, Schwerzenbach, Switzerland) connected to a multi-meter (Seven Multi, Mettler-Toledo). […] The final volume of the solution was then brought up to 1.0 L using 18 megohm-cm distilled and deionized water and the final pH verified. To minimize opportunity for microbial growth, the final sweat solution was filtered through a 0.2 μm pore size filter (Cat. No. SCGVU11RE, Millipore Corp., Billerica, Mass.).
# [1] = Dissolution of vitamin constituents during preparation of artificial sweat; conditions: for dissolution on addition to the artificial sweat solution: before pH adjustment (pH 3.8 as prepared), 36° C.
# Experimental: as §1, §2, §3
# [2] = water, cited from earlier work
# [3] = Long-term stability of artificial sebum by thin-layer chromatography; assay type: physicochemical; conditions: dry at 32° C., absence of vitamin E
# Experimental: Lipids and formulation of synthetic sebum. Cholesteryl oleate, oleoyl oleate, palmityl palmitate, cholesterol and vitamin E ((±)-α-tocopherol) were purchased from Sigma-Aldrich (St. Louis, Mo.). Squalene and stearic acid were from Acros Organics (Geel, Belgium). Triolein and tristearin were purchased from MP Biochemicals (Solon, Ohio), and oleic acid was from Fisher Scientific (Fairlawn, N.J.). […] All nine lipids were dissolved in a 2:1 co-solvent mixture of chloroform and methanol and divided into two portions, one of which received vitamin E at 0.1% by weight to mimic human sebum content. After combining and mixing, portions of lipid solution were transferred to 16×125 mm glass tubes equipped with Teflon-lined screw caps. One set of tubes with lipid solution was maintained at 4° C. to characterize storage using refrigeration. […]
# Thin-layer chromatography. All samples were analyzed using thin layer chromatography. Glass plates (20×20 cm) coated with 0.25-mm-thick silica gel G (Adsorbosil-plus-1; Alltech Associates; Deerfield Ill.) were washed with chloroform:methanol, 2:1, activated in a 110° C. oven, and the adsorbent was scored into 6-mm-wide lanes. […] After two hrs, charring was complete, and the chromatograms were quantitated by photodensitometry. […]
structure (smiles),measurement,setting,value
"Cc1cc2nc3c(=O)[nH]c(=O)nc-3n(C[C@H](O)[C@H](O)[C@H](O)CO)c2cc1C [riboflavin, Riboflavin (C17H20N4O6)]",solubility,physchem,≥ 2000 µM
same,concentration in artificial sweat relative to that predicted by solubility in water,[1]; artificial sweat vs water,two orders of magnitude greater
same,solubility,[2],0.3 mg/mL
"CC(C)(CO)[C@@H](O)C(=O)NCCC(=O)O [pantothenic, D-Pantothenic Acid (C9H17NO5)]",dissolution on addition to the artificial sweat solution,[1],did not dissolve completely
CC(C)=CCC/C(C)=C/CC/C(C)=C/CC/C=C(\C)CC/C=C(\C)CCC=C(C)C [squalene],day by which completely oxidized,[3],≤ 21 days
"O=C(O)c1cccnc1 [nicotinic acids, Nicotinic Acid (C6H5NO2)]",dissolution on addition to the artificial sweat solution,[1],did not dissolve completely
"Cc1cc2nc3c(=O)[nH]c(=O)nc-3n(C[C@H](O)[C@H](O)[C@H](O)COP(=O)(O)O)c2cc1C [riboflavin 5′-(dihydrogen phosphate), reference compound]",solubility,[2]; pH=5.6,68 mg/mL
